Results taken from BindingDB's records for doi:10.7270/Q2WS8WDS (n/a, 1995).

Target: T1, Protein kinase C zeta type (Rattus norvegicus, UniProt P09217)
T1 sequence (P09217 whole entry): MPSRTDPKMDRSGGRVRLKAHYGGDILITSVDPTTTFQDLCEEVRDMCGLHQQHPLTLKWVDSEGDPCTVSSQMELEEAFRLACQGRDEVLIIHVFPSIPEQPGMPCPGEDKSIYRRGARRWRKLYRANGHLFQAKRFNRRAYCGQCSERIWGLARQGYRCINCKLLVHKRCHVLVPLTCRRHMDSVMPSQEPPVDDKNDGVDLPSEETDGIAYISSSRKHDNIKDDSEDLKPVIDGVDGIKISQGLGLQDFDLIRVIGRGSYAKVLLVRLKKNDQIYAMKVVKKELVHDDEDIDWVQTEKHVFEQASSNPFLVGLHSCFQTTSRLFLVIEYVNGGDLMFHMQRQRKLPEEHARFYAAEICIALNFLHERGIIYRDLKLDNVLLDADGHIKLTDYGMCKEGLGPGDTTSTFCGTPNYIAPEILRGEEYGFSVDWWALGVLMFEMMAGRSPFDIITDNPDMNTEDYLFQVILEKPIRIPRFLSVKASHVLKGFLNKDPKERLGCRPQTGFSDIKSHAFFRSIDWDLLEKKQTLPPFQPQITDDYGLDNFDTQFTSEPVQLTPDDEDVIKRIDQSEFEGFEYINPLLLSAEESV
Assay: Inhibition of Protein kinase C isolated from rat brain

Structure (SMILES) | IC50
CCCCCCCCCCC#Cc1cccc([C@@H](O)[C@@H](N)CO)c1 | 22.2 µM
CCCCCCCCCCCCC/C=C/[C@@H](O)[C@@H](N)CO [(E,2S,3R)-2-azanyloctadec-4-ene-1,3-diol] | 23.4 µM
